For the assay, the target named is T1, human IL-17AA (Homo sapiens, UniProt Q16552).
T1 construct: host or cells: HEK (human embryonic kidney) cells
T1 sequence (Q16552 24-155) 1: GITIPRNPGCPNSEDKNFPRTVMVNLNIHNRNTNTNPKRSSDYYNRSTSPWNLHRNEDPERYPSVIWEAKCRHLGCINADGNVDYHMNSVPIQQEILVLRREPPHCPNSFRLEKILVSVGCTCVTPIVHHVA
T1 sequence (Q16552 24-155) 2: T1 sequence (Q16552 24-155) 1
In words: IL-8 release assay in human epithelial keratinocytes adult (HEKa). The class given is cell-based. Particulars: 3 ng/ml human IL-17AA + 10 ng/ml human TNFalpha, 68-72 h, IL-8 by HTRF, read-out: Rel EC50 L-8 release assay. Here is the method:
Example: IL-8 release assay in human epithelial keratinocytes adult (HEKa) Keratinocytes were seeded at 3500 cells/well in 384-well ViewPlates (Perkin Elmer) in Epilife medium (Thermo Fisher) containing human keratinocyte growth supplement (HKGS) without hydrocortisone and incubated in a humid incubator at 37° C., 5% CO2, overnight. The following day growth medium was removed and 25 μl fresh Epilife 10 medium added. 75 nl test compound in 100% DMSO was added into each well reserved
for test compounds, by the use of acoustic pipetting. The remaining wells received an equal volume of DMSO only, as vehicle control, or terfenadine in DMSO, as a positive control for any cytotoxic compounds. Subsequently, another 25 μl Epilife medium was added to each well. Finally, wells containing test compounds and wells prepared to yield 15 maximum stimulation received 25 μl of 9 ng/ml recombinant, human embryonic kidney cell (HEK)-derived human IL-17AA+30 ng/ml human TNF-alpha, in Epilife medium. Wells prepared to define 100% inhibition of IL-17 effects received 25 μl of 30 ng/ml human TNF-alpha alone, in Epilife medium. Final concentrations were 3 ng/ml HEKhuman IL-17AA+10 ng/ml human TNFalpha (maximum stimulation) and 10 ng/ml 20 human TNFalpha alone (100% inhibition, Emax), respectively. Cells were incubated for 68-72 h in the incubator. IL-8 released from the cells was measured by the use of a commercial homogenous time-resolved fluorescence (HTRF) assay (CisBio). 2 μl cell culture supernatant was transferred to a 384-well Proxiplate. 5 μl HTRF reagent was added and the plates incubated sealed in the dark for 3-22 h at room temperature. Time resolved fluorescence was read at 665 vs 620 nm, with excitation at 320 nm, and IL-8 levels calculated as percent of controls. Reduction of the amount of secreted IL-8 indicates decreased IL-17 signaling. Concentration response curves were fitted by the use of a four-parameter logistic equation. Relative IC50 and Emax were reported from 5 curves showing acceptable fit (r2>0.9). Cytotoxicity was measured in the cell-containing
Compounds of the present invention were tested in the IL-8 release assay in human epithelial keratinocytes.
In general terms: TR-FRET usually uses a lanthanide donor and a delayed reading to cut background.

Bounds are passed on as bounds.

Data on 19 molecules can be found in patent publication US20220162191A1, “SMALL MOLECULE MODULATORS OF IL-17” (LEO PHARMA A/S, priority 2019, published 2022).

`CC(C)n1cc(-c2ccc(Cl)c(C[C@H](NC(=O)c3ccnn3C)C(=O)Nc3ccc(-c4cn[nH]c4)c(O)c3)c2)ccc1=O` [Example 175, N-[(1S)-1-[[2-chloro-5-(1-isopropyl-6-oxo-3-pyridyl)phenyl]methyl]-2-[3-hydroxy-4-(1H-pyrazol-4-yl)anilino]-2-oxo-ethyl]-2-methyl-pyrazole-3-carboxamide]: the EC50 – broadly, the concentration at which the effect is half-maximal – was less than 100 nM.

Take `Cc1cnn(C)c1-c1ccc(NC(=O)[C@@H](NC(=O)c2ccnn2C)[C@@H](c2cccc(-c3cncc(N4C[C@@H]5C[C@H]4CO5)c3)c2)C2CC2)cc1` [Example 348, N-[(1S)-1-[(R)-cyclopropyl-[3-[5-[(1S,4S)-2-oxa-5-azabicyclo[2.2.1]heptan-5-yl]-3-pyridyl]phenyl]methyl]-2-[4-(2,4-dimethylpyrazol-3-yl)anilino]-2-oxo-ethyl]-2-methyl-pyrazole-3-carboxamide]: the EC50 was less than 100 nM.

Turning to `Cc1ncn(C)c1-c1ccc(NC(=O)[C@H](Cc2cc(-c3cccc(C(C)(C)O)c3)ccc2Cl)NC(=O)c2ccnn2C)cc1` [Example 181, N-[(1S)-[[2-chloro-5-[3-(1-hydroxy-1-methyl-ethyl)phenyl]phenyl]methyl]-2-[4-(3,5-dimethylimidazol-4-yl)anilino]-2-oxo-ethyl]-2-methyl-pyrazole-3-carboxamide], the concentration for a half-maximal effect (EC50) was less than 100 nM.

Turning to `Cc1n[nH]c(C)c1-c1ccc(NC(=O)[C@H](Cc2cc(-c3ccnc(N4C[C@H]5C[C@@H]4CO5)c3)ccc2Cl)NC(=O)C2(F)CC2)cc1` [Example 222, N-[(1S)-1-[[2-chloro-5-[2-[(1R,4R)-2-oxa-5-azabicyclo[2.2.1]heptan-5-yl]-4-pyridyl]phenyl]methyl]-2-[4-(3,5-dimethyl-1H-pyrazol-4-yl)anilino]-2-oxo-ethyl]-1-fluoro-cyclopropanecarboxamide], the EC50 is less than 100 nM.

On to `Cc1n[nH]cc1-c1ccc(NC(=O)C(NC(=O)c2ccnn2C)C(c2ccccc2)c2cccc(-c3ccc(=O)n(C(C)C)c3)c2)cc1` (single isomer, unassigned; diastereomer 2) [Example 236, N-[1-[[3-(1-isopropyl-6-oxo-3-pyridyl)phenyl]-phenyl-methyl]-2-[4-(3-methyl-1H-pyrazol-4-yl)anilino]-2-oxo-ethyl]-2-methyl-pyrazole-3-carboxamide (Diastereomer 2)], for which the concentration giving a half-maximal response (EC50) is less than 100 nM.

In the case of `Cn1cncc1-c1ccc(NC(=O)C(Cc2cc(-c3ccnc(N4CC5(CNC5)C4)c3)ccc2Cl)NC(=O)c2ccnn2C)cc1` (stereo not shown) [Example 194, N-[1-[[2-chloro-5-[2-(2,6-diazaspiro[3.3]heptan-6-yl)-4-pyridyl]phenyl]methyl]-2-[4-(3-methylimidazol-4-yl)anilino]-2-oxo-ethyl]-2-methyl-pyrazole-3-carboxamide], the EC50 was 100 to 1000 nM.

On to `CN(C)C(=O)c1cc(-c2ccc(Cl)c(CC(NC(=O)c3ccnn3C)C(=O)Nc3ccc(-c4nncn4C)cc3)c2)ccc1O` (stereo not shown) [Example 167, N-[1-[[2-chloro-5-[3-(dimethylcarbamoyl)-4-hydroxy-phenyl]phenyl]methyl]-2-[4-(4-methyl-1,2,4-triazol-3-yl)anilino]-2-oxo-ethyl]-2-methyl-pyrazole-3-carboxamide], for which the concentration for a half-maximal effect (EC50) is greater than 1000 nM.

Take `CC(C)n1cc(-c2cccc(C(c3ccccc3)C(NC(=O)OC3CC3)C(=O)Nc3ccc(-c4cncn4C)cc3)c2)ccc1=O` (single isomer, unassigned; diastereomer 4) [Example 241, cyclopropyl N-[1-[[3-(1-isopropyl-6-oxo-3-pyridyl)phenyl]-phenyl-methyl]-2-[4-(3-methylimidazol-4-yl)anilino]-2-oxo-ethyl]carbamate (Diastereomer 4)]: the EC50 is greater than 1000 nM.

As to `CC(C)n1cc(-c2ccc3c(c2)C([C@H](NC(=O)c2ccnn2C)C(=O)Nc2ccc(-c4cncn4C)cc2)CC3)ccc1=O` (stereo partly drawn) [Example 25, N-[(1S)-1-[6-(1-isopropyl-6-oxo-3-pyridyl)indan-1-yl]-2-[4-(3-methylimidazol-4-yl)anilino]-2-oxo-ethyl]-2-methyl-pyrazole-3-carboxamide], the 50% effective concentration (EC50) was in the range of 100 to 1000 nM.

As for `Cc1n[nH]c(C)c1-c1ccc(NC(=O)[C@H](Cc2cc(-c3ccnc(N4CCC5(CC4)COC5)n3)ccc2Cl)NC(=O)C2(F)CC2)cc1` [Example 317, N-[(1S)-1-[[2-chloro-5-[2-(2-oxa-7-azaspiro[3.5]nonan-7-yl)pyrimidin-4-yl]phenyl]methyl]-2-[4-(3,5-dimethyl-1H-pyrazol-4-yl)anilino]-2-oxo-ethyl]-1-fluoro-cyclopropanecarboxamide], the EC50 is less than 100 nM.

Turning to `CC(C)n1cc(-c2ccc(Cl)c(CC(NC(=O)c3ccnn3C)C(=O)Nc3ccc(-c4c[nH]nc4C(F)(F)F)cc3)c2)ccc1=O` (stereo not shown) [Example 121, N-[1-[[2-chloro-5-(1-isopropyl-6-oxo-3-pyridyl)phenyl]methyl]-2-oxo-2-[4-[3-(trifluoromethyl)-1H-pyrazol-4-yl]anilino]ethyl]-2-methyl-pyrazole-3-carboxamide], the half-maximal effective concentration (EC50) was in the range of 100 to 1000 nM.

With `Cc1n[nH]c(C)c1-c1ccc(NC(=O)[C@@H](NC(=O)C2(F)CC2)[C@@H]2CCc3ccc(-c4ccnc(N5CC6(COC6)C5)c4)cc32)cc1` [Example 364, N-[(1S)-2-[4-(3,5-dimethyl-1H-pyrazol-4-yl)anilino]-1-[(1R)-6-[2-(6-oxa-2-azaspiro[3.3]heptan-2-yl)-4-pyridyl]indan-1-yl]-2-oxo-ethyl]-1-fluoro-cyclopropanecarboxamide], the EC50 was less than 100 nM.

Regarding `Cc1cnn(C)c1-c1ccc(NC(=O)[C@H](Cc2cc(-c3ccc(=O)n(C(C)C)c3)ccc2Cl)NC(=O)C2CC2)cc1` [Example 329, N-[(1S)-1-[[2-chloro-5-(1-isopropyl-6-oxo-3-pyridyl)phenyl]methyl]-2-[4-(2,4-dimethylpyrazol-3-yl)anilino]-2-oxo-ethyl]cyclopropanecarboxamide], the 50% effective concentration (EC50) is 100 to 1000 nM.

As for `Cc1ncn(C)c1-c1ccc(NC(=O)[C@@H](NC(=O)C2(F)CC2)[C@@H]2CCCc3ccc(-c4ccc5c(c4)CNC5)cc32)cc1` [Example 43, N-[(1S)-2-[4-(3,5-dimethylimidazol-4-yl)anilino]-1-[(1R)-7-isoindolin-5-yltetralin-1-yl]-2-oxo-ethyl]-1-fluoro-cyclopropanecarboxamide], the EC50 is 100 to 1000 nM.

For `COc1cc(NC(=O)[C@H](Cc2cc(-c3ccc(=O)n(C(C)C)c3)ccc2Cl)NC(=O)c2conc2C)ccc1-c1ccnn1C` [Example 70, N-[(1S)-1-[[2-chloro-5-(1-isopropyl-6-oxo-3-pyridyl)phenyl]methyl]-2-[3-methoxy-4-(2-methylpyrazol-3-yl)anilino]-2-oxo-ethyl]-3-methyl-isoxazole-4-carboxamide], the concentration giving a half-maximal response (EC50) was greater than 1000 nM.

Take `CC(C)n1cc(-c2ccc(Cl)c(C[C@H](NC(=O)C3(F)CC3)C(=O)Nc3ccc(-c4cncn4C)cc3)c2)ccc1=O` [Example 104, N-[(1S)-1-[[2-chloro-5-(1-isopropyl-6-oxo-3-pyridyl)phenyl]methyl]-2-[4-(3-methylimidazol-4-yl)anilino]-2-oxo-ethyl]-1-fluoro-cyclopropanecarboxamide]: the EC50 was in the range of 100 to 1000 nM.

For the molecule `Cc1nocc1C(=O)N[C@@H](Cc1cc(-c2ccnc(C(C)(C)C)c2)ccc1Cl)C(=O)Nc1ccc(-c2nncn2C)cc1` [Example 128, N-[(1S)-1-[[5-(2-tert-butyl-4-pyridyl)-2-chloro-phenyl]methyl]-2-[4-(4-methyl-1,2,4-triazol-3-yl)anilino]-2-oxo-ethyl]-3-methyl-isoxazole-4-carboxamide], the concentration giving a half-maximal response (EC50) was in the range of 100 to 1000 nM.

Take `Cn1cncc1-c1ccc(NC(=O)C(Cc2cc(-c3ccnc(N4CCC4)c3)ccc2Cl)NC(=O)c2ccnn2C)cc1` (stereo not shown) [Example 149, N-[1-[[5-[2-(azetidin-1-yl)-4-pyridyl]-2-chloro-phenyl]methyl]-2-[4-(3-methylimidazol-4-yl)anilino]-2-oxo-ethyl]-2-methyl-pyrazole-3-carboxamide]: the half-maximal effective concentration (EC50) was in the range of 100 to 1000 nM.

`Cc1n[nH]c(C)c1-c1ccc(NC(=O)[C@@H](NC(=O)c2ccnn2C)[C@@H]2CCc3ccc(-c4ccnc(C(C)C)c4)cc32)cc1` [Example 14, N-[(1S)-2-[4-(3,5-dimethyl-1H-pyrazol-4-yl)anilino]-1-[(1R)-6-(2-isopropyl-4-pyridyl)indan-1-yl]-2-oxo-ethyl]-2-methyl-pyrazole-3-carboxamide]: the concentration for a half-maximal effect (EC50) was less than 100 nM.
